Literature values, collected in patent EP0606683B1, “Means for diagnosis of angiogenic diseases” (INSTITUT FÜR DIAGNOSTIKFORSCHUNG GmbH AN DER FREIEN …, priority 1993, dated 2003).

How the values were obtained:
[1] = tested on: deendothelisierten Bereichen der Aorta; conditions: rabbit, abdominal aorta de-endothelialised by balloon catheter; Kurata et al. 1992
[2] = tested on: humanen atheromatösen Koronararterien; conditions: in vitro incubation; Dashwood et al., 1991

## ^125I-Endothelin 1: ^125I-labelled Endothelin 1, ein Polypeptid aus 21 Aminosäuren; used in cited literature studies
[1]
  Aufnahme von ^125I-Endothelin 1 in den deendothelisierten Bereichen der Aorta: vermehrte Aufnahme
[2]
  Bindung von ^125I-Endothelin 1 im Bereich der Tunica media sowie in Bereichen der Vasa vasora: vermehrte Bindung
